# According to patent publication US11919888B2, “Neprilysin inhibitors” (THERAVANCE BIOPHARMA R&D IP, LLC, priority 2012, dated 2024):
# Biological target: T1, human NEP (Homo sapiens, UniProt P08473)
# T1 construct: purchased R&D Systems, Minneapolis, MN 1182-ZN
# Assay: In vitro enzyme inhibition assay at human NEP (fluorogenic peptide substrate)
# Format: biochemical
# Settings: recombinant human NEP; 10 μM fluorogenic substrate Mca-D-Arg-Arg-Leu-Dap-(Dnp)-OH; 37° C.; 30 minute preincubation; read-out: pKi value at human NEP (converted)
# Procedure: In Vitro Assays for the Quantitation of Inhibitor Potencies (IC50) at Human and Rat NEP, and Human ACE
# The inhibitory activities of compounds at human and rat neprilysin (EC 3.4.24.11; NEP) and human angiotensin converting enzyme (ACE) were determined using in vitro assays as described below.
# Recombinant human NEP and recombinant human ACE were obtained commercially (R&D Systems, Minneapolis, MN, catalog numbers 1182-ZN and 929-ZN, respectively). The fluorogenic peptide substrate Mca-D-Arg-Arg-Leu-Dap-(Dnp)-OH (Medeiros et al. (1997) Braz. J. Med. Biol. Res. 30:1157-62; Anaspec, San Jose, CA) and Abz-Phe-Arg-Lys(Dnp)-Pro-OH (Araujo et al. (2000) Biochemistry 39:8519-8525; Bachem, Torrance, CA) were used in the NEP and ACE assays respectively.
# The assays were performed in 384-well white opaque plates at 37° C. using the fluorogenic peptide substrates at a concentration of 10 μM in Assay Buffer (NEP: 50 mM HEPES, pH 7.5, 100 mM NaCl, 0.01% polyethylene glycol sorbitan monolaurate (Tween-20), 10 μM ZnSO4; ACE: 50 mM HEPES, pH 7.5, 100 mM NaCl, 0.01% Tween-20, 1 μM ZnSO4).
# Test compounds were assayed over the range of concentrations from 10 μM to 20 pM. Test compounds were added to the enzymes and incubated for 30 minute at 37° C. prior to initiating the reaction by the addition of substrate. Reactions were terminated after 20 minutes of incubation at 37° C. by the addition of glacial acetic acid to a final concentration of 3.6% (v/v).
# Plates were read on a fluorometer with excitation and emission wavelengths set to 320 nm and 405 nm, respectively. Inhibition constants were obtained by nonlinear regression of the data using the equation (GraphPad Software, Inc., San Diego, CA): ν=ν0/[1+(I/K′)] where ν is the reaction rate, ν0 is the uninhibited reaction rate, I is the inhibitor concentration and K′ is the apparent inhibition constant.
# T1 sequence (P08473 52-750 limits assumed): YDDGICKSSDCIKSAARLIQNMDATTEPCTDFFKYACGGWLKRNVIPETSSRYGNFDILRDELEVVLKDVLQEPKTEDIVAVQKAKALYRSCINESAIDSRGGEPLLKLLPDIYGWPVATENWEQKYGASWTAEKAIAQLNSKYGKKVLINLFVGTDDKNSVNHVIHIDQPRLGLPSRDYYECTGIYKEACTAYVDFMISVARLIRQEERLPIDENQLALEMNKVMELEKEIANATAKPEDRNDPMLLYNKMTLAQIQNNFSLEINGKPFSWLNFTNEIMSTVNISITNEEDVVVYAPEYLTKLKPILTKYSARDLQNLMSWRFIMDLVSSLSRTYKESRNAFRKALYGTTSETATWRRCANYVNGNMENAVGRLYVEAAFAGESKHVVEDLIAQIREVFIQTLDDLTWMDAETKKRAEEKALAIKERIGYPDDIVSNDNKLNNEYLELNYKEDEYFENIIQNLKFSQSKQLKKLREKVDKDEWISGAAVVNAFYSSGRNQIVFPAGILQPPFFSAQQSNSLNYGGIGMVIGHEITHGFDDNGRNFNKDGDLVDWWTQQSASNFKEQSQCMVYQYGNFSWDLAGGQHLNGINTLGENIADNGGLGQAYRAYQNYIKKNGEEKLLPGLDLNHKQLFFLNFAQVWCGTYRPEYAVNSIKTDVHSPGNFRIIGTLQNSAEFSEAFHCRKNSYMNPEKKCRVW
row,SMILES,Ki [nM]
1,"C[C@@](CO)(C[C@@H](Cc1ccc(-c2ccccc2)cc1)NC(=O)c1cnn[nH]1)C(=O)O [(2S,4R)-5-biphenyl-4-yl-2-hydroxymethyl-2-methyl-4-[(3H-[1,2,3]triazole-4-carbonyl)amino]-pentanoic acid, reference compound]",≤ 1
2,"CCOC[C@](C)(C[C@@H](Cc1ccc(-c2cccc(Cl)c2)cc1)NC(=O)c1cnn[nH]1)C(=O)O [Example 2K, (2S,4R)-5-(3′-Chlorobiphenyl-4-yl)-2-ethoxymethyl-2-methyl-4-[(3H-[1,2,3]triazole-4-carbonyl)amino]pentanoic Acid]",≤ 1
3,"C[C@@](CO)(C[C@@H](Cc1ccc(-c2cccc(Cl)c2)cc1)NC(=O)c1c[nH]nn1)C(=O)O [Example 2D, (2S,4R)-5-(3′-Chlorobiphenyl-4-yl)-2-hydroxymethyl-2-methyl-4-[(1H-[1,2,3]triazole-4-carbonyl)amino]pentanoic Acid]",≤ 1
4,"CC(C)c1cc(C(=O)N[C@H](Cc2ccc(-c3cc(Cl)ccc3F)cc2)C[C@@](C)(CO)C(=O)O)[nH]n1 [Example 7C, (2S,4R)-5-(5′-Chloro-2′-fluorobiphenyl-4-yl)-2-hydroxymethyl-4-[(5-isopropyl-2H-pyrazole-3-carbonyl)amino]-2-methylpentanoic Acid]",≤ 1
5,"CCOc1cc(C(=O)N[C@H](Cc2ccc(-c3cc(Cl)ccc3F)cc2)C[C@@](C)(CO)C(=O)O)n[nH]1 [Example 7B, (2S,4R)-5-(5′-Chloro-2′-fluorobiphenyl-4-yl)-4-[(5-ethoxy-1H-pyrazole-3-carbonyl)-amino]-2-hydroxymethyl-2-methylpentanoic Acid]",≤ 1
6,"CC(C)Cc1cc(C(=O)N[C@H](Cc2ccc(-c3cc(Cl)ccc3F)cc2)C[C@@](C)(CO)C(=O)O)on1 [Example 6I, (2S,4R)-5-(5′-Chloro-2′-fluorobiphenyl-4-yl)-2-hydroxymethyl-4-[(3-isobutylisoxazole-5-carbonyl)amino]-2-methylpentanoic Acid]",≤ 1
7,"CCOC[C@](C)(C[C@@H](Cc1ccc(-c2cc(Cl)ccc2F)cc1)NC(=O)c1cc(C(C)=O)[nH]n1)C(=O)O [Example 8C, (2S,4R)-4-[(5-Acetyl-1H-pyrazole-3-carbonyl)amino]-5-(5′-chloro-2′-fluorobiphenyl-4-yl)-2-ethoxymethyl-2-methylpentanoic Acid]",≤ 1
8,"COC[C@](C)(C[C@@H](Cc1ccc(-c2cccc(Cl)c2)cc1)NC(=O)c1cc(OC)no1)C(=O)O [Example 6B, (2S,4R)-5-(3′-Chlorobiphenyl-4-yl)-4-[(3-methoxyisoxazole-5-carbonyl)amino]-2-methoxymethyl-2-methylpentanoic Acid]",10 to 100
9,"CC(C)C(=O)OC[C@](C)(C[C@@H](Cc1ccc(-c2ccccc2)cc1)NC(=O)c1cnn[nH]1)C(=O)O [Example 1E, (2S,4R)-5-Biphenyl-4-yl-2-isobutyryloxymethyl-2-methyl-4-[(3H-[1,2,3]triazole-4-carbonyl)amino]pentanoic Acid]",≤ 1
10,"CC(C)Cc1cc(C(=O)N[C@H](Cc2ccc(-c3cc(Cl)ccc3F)cc2)C[C@@](C)(CO)C(=O)O)[nH]n1 [Example 7F, (2S,4R)-5-(5′-Chloro-2′-fluorobiphenyl-4-yl)-2-hydroxymethyl-4-[(5-isobutyl-2H-pyrazole-3-carbonyl)amino]-2-methylpentanoic Acid]",≤ 1
11,"COC[C@](C)(C[C@@H](Cc1ccc(-c2cc(Cl)ccc2F)cc1)NC(=O)c1cc(C(C)=O)n[nH]1)C(=O)O [Example 8B, (2S,4R)-4-[(5-Acetyl-2H-pyrazole-3-carbonyl)amino]-5-(5′-chloro-2′-fluorobiphenyl-4-yl)-2-methoxymethyl-2-methylpentanoic Acid]",1 to 3.16
12,"C[C@@](COCCCO)(C[C@@H](Cc1ccc(-c2cccc(Cl)c2)cc1)NC(=O)c1c[nH]nn1)C(=O)O [Example 2M, (2S,4R)-5-(3′-Chlorobiphenyl-4-yl)-2-(3-hydroxypropoxymethyl)-2-methyl-4-[(1H-[1,2,3]triazole-4-carbonyl)amino]pentanoic Acid]",≤ 1
13,"Cc1ccccc1-c1ccc(C[C@H](C[C@@](C)(CO)C(=O)O)NC(=O)c2c[nH]nn2)cc1 [Example 2C, (2S,4R)-2-Hydroxymethyl-2-methyl-5-(2′-methylbiphenyl-4-yl)-4-[(1H-[1,2,3]triazole-4-carbonyl)amino]pentanoic Acid]",≤ 1
14,"C[C@@](CO)(C[C@@H](Cc1ccc(-c2cc(Cl)ccc2F)cc1)NC(=O)c1c[nH]nn1)C(=O)O [Example 2E, (2S,4R)-5-(5′-Chloro-2′-fluorobiphenyl-4-yl)-2-hydroxymethyl-2-methyl-4-[(1H-[1,2,3]triazole-4-carbonyl)amino]pentanoic Acid]",1 to 3.16
15,"C[C@@](COCCO)(C[C@@H](Cc1ccc(-c2cc(Cl)ccc2F)cc1)NC(=O)c1cnn[nH]1)C(=O)O [Example 2S, (2S,4R)-5-(5′-Chloro-2′-fluorobiphenyl-4-yl)-2-(2-hydroxyethoxymethyl)-2-methyl-4-[(3H-[1,2,3]triazole-4-carbonyl)amino]pentanoic Acid]",3.16 to 10
16,"C[C@@](CO)(C[C@@H](Cc1ccc(-c2cc(Cl)ccc2Cl)cc1)NC(=O)c1c[nH]nn1)C(=O)O [Example 2F, (2S,4R)-5-(2′,5′-Dichlorobiphenyl-4-yl)-2-hydroxymethyl-2-methyl-4-[(1H-[1,2,3]triazole-4-carbonyl)amino]pentanoic Acid]",≤ 1
17,"C[C@@](CO)(C[C@@H](Cc1ccc(-c2ccccc2Cl)cc1)NC(=O)c1c[nH]nn1)C(=O)O [Example 2B, (2S,4R)-5-(2′-Chlorobiphenyl-4-yl)-2-hydroxymethyl-2-methyl-4-[(1H-[1,2,3]triazole-4-carbonyl)amino]pentanoic Acid]",≤ 1
18,"C[C@@](COCCCO)(C[C@@H](Cc1ccc(-c2cc(Cl)ccc2F)cc1)NC(=O)c1cnn[nH]1)C(=O)O [Example 2P, (2S,4R)-5-(5′-Chloro-2′-fluorobiphenyl-4-yl)-2-(3-hydroxypropoxymethyl)-2-methyl-4-[(3H-[1,2,3]triazole-4-carbonyl)amino]pentanoic Acid]",≤ 1
19,"COC[C@](C)(C[C@@H](Cc1ccc(-c2cccc(Cl)c2)cc1)NC(=O)c1c[nH]nn1)C(=O)O [Example 2J, (2S,4R)-5-(3′-Chlorobiphenyl-4-yl)-2-methoxymethyl-2-methyl-4-[(1H-[1,2,3]triazole-4-carbonyl)amino]pentanoic Acid]",1 to 3.16
20,"C[C@@](COCCO)(C[C@@H](Cc1ccc(-c2cccc(Cl)c2)cc1)NC(=O)c1cc(O)no1)C(=O)O [Example 6L, (2S,4R)-5-(3′-Chlorobiphenyl-4-yl)-2-(2-hydroxyethoxymethyl)-4-[(3-hydroxyisoxazole-5-carbonyl)amino]-2-methylpentanoic Acid]",≤ 1
21,"COC[C@](C)(C[C@@H](Cc1ccc(-c2cc(Cl)ccc2F)cc1)NC(=O)c1c[nH]nn1)C(=O)O [Example 2N, (2S,4R)-5-(5′-Chloro-2′-fluorobiphenyl-4-yl)-2-methoxymethyl-2-methyl-4-[(1H-[1,2,3]triazole-4-carbonyl)amino]pentanoic Acid]",≤ 1
